The nature of one data set: in vitro. The conditions noted are these: human, Caco-2.
For data set [1], the system named is DLD-1 colorectal adenocarcinoma cells. Briefly: Neutral red (NR) uptake cytotoxicity assay, DLD-1. The format is cell-based, human. The conditions noted are these: for IC50: Homo sapiens, DLD-1, NR assay, 72 h incubation; for selectivity index, DLD-1: IC50 in CRL2120 normal fibroblasts divided by IC50 in DLD-1. The text has this: (§1) DMSO at 0.1% was used as solvent control.

Data set [2] relates to HepG2 hepatocarcinoma cells. The data set can be described thus: Neutral red (NR) uptake cytotoxicity assay, HepG2. The conditions noted are these: for IC50: Homo sapiens, HepG2, NR assay, 72 h incubation. In kind it is cell-based, human.
Text: as §1

Data set [3] has as its system normal CRL2120 human skin fibroblasts. The data set can be described thus: Neutral red (NR) uptake cytotoxicity assay, normal fibroblasts. The format is cell-based. The conditions noted are these: Skin fibroblast, 72 h incubation.
Text: as §1

Data set [4] relates to MCF-7 breast adenocarcinoma cells. Briefly: Neutral red (NR) uptake cytotoxicity assay, MCF7. In kind it is cell-based, human. The conditions noted are these: for IC50: Homo sapiens, MCF7, NR assay, 72 h incubation; for selectivity index, MCF7: IC50 in CRL2120 normal fibroblasts divided by IC50 in MCF7.
Text: as §1

In data set [5] the test system is four tested cancer cell lines (MCF-7, DLD-1, Caco-2, HepG2). Briefly: Neutral red (NR) uptake cytotoxicity assay, summary over the four tested cancer cell lines. The format is cell-based. The settings on record: Homo sapiens.
Text: as §1

For data set [6], the system named is Caco-2 colorectal adenocarcinoma cells. The data set can be described thus: Neutral red (NR) uptake cytotoxicity assay, Caco-2. The settings on record: Homo sapiens, Caco-2, 72 h, read-out: IC50 values, Caco-2.
Text: (§3) Four human carcinoma cell lines and one normal cell line were used. They were: DLD-1 and Caco-2 colorectal adenocarcinoma cell lines, HepG2 hepatocarcinoma cells, MCF-7 breast adenocarcinoma cells and the normal CRL2120 human skin fibroblasts. Caco-2 cells (from the ŞAP Institute of Ankara,Turkey andMCF-7 cells (from ATCC) provided by Prof. Dr. Tansu Koparal (Anadolu University, Eskisehir, Turkey),HepG2, DLD-1 and CRL2120 cells were obtained from American Type Culture Collection (ATCC); DMEM medium (Sigma-aldrich, Munich, Germany) was used to maintain cells as a monolayer and was supplemented with 10% fetal calf serum and 1% penicillin (100 U/mL)-streptomycin (100 μg/mL) in a humidified 5% CO2 atmosphere at 37 °C.
(§4) Dimethylsufoxide (DMSO) at less than 0.1% final concentration was used to dilute the tested samples. DMSO at 0.1% was used as solvent control. The incubation time was 72 h incubation in humidified 5% CO2 atmosphere at 37 °C, followed by NR coloration as previously described [23, 24]. ELx 808 Ultra Microplate Reader (Biotek) equipped with a 540 nm filter was used to measure the absorbance. Each experiment was performed at least three times, with three replicates each. The viability was evaluated based on a comparison with untreated cells. The IC50 values represented the sample’s concentrations required to inhibit 50% of cell proliferation and were calculated from a calibration curve by linear regression using Microsoft Excel [26] as follows: for each sample, the cell growth percentages at the different concentrations were used to draw the calibration curve with logarithmic regression obtained by 2 measuring points (one smaller and one larger than 50%) from where the IC50 value was deduced.
For data set [7], the system named is MCF-7 cells. The data set can be described thus: Integrity of mitochondrial membrane potential (JC-1 staining, flow cytometry). The format is cell-based, human. The conditions noted are these: MCF-7, 72 h, IC50; control 6.0%. On the procedure: Cells were tested in 6-well plates (3 mL, 1 × 10^5 cells/mL) and the incubation time was 72 h in humidified 5% CO2 atmosphere at 37 °C. The tested concentrations were ¼ × IC50, ½ × IC50 and IC50. Untreated cells (control) were used for comparison with treated cells. JC-1 staining was performed according to the manufacturer’s protocol as reported previously. Cells were then measured in a BD FACS Aria I Cell Sorter Flow Cytometer (Becton-Dickinson, Germany). The JC-1 signal was measured at an excitation wavelength of 561 nm (150 mW) and detected using a 586/15 nm band-pass filter. The signal was analyzed at an excitation wavelength of 640 nm (40 mW) and detected using a 730/45 nm bandpass filter. Cytographs were analyzed using BD FACSDiva™ Flow Cytometry Software Version 6.1.2 (Becton-Dickinson). All experiments were performed at least in triplicates.
Background: A flow cytometer gives signals particle by particle.

Data set [8] relates to MCF-7 cells. The data set can be described thus: Cell cycle analysis and detection of apoptosis by flow cytometry. In kind it is cell-based, human. The method, then: Cells were tested in 6-well plates (3 mL, 1 × 10^5 cells/mL) and the incubation time was 72 h in humidified 5% CO2 atmosphere at 37 °C. […] Untreated cells (control) were used for comparison with treated cells. The BD FACS Aria I Cell Sorter Flow Cytometer (Becton-Dickinson, Germany) was then used for cell cycle analysis. For each sample, 10^4 cells were counted. For PI excitation, an argon-ion laser emitting at 488 nm was used. Cytographs were analyzed using BD FACSDiva™ Flow Cytometry Software Version 6.1.2 (Becton-Dickinson).

A further data set relates to caspase 9 in MCF-7 cells. Briefly: Caspase-Glo 9 assay. The format is cell-based, human. The conditions noted are these: MCF-7, 6 h, optimal activity generally at IC50, vs untreated control. From the text:
(§2) The BioTek Synergy™ HT multi-detection microplate reader was used to measure the luminescence and Caspase activity was expressed as percentage of the untreated control.

Data set [9] has as its system MCF-7 cells. Briefly: Reactive oxygen species production (H2DCFH-DA). In kind it is cell-based, human. The conditions noted are these: MCF-7, 24 h, at IC50, compared to non-treated cells. The method, then:
Cells were tested in 6-well plates (3 mL, 1 × 10^5 cells/mL) and the incubation time was 24 h in humidified 5% CO2 atmosphere at 37 °C. The tested concentrations were ¼ × IC50, ½ × IC50 and IC50. Untreated cells (control) were used for comparison with treated cells. The fluorescence was measured using SpectraMax® M5 Microplate Reader (Molecular Devices, Biberach, Germany) at 480/530 nm. All experiments were performed at least in triplicates.

Data set [10] concerns caspases 3/7 in MCF-7 cells. The data set can be described thus: Caspase-Glo 3/7 assay. The settings on record: MCF-7, 6 h, optimal activity generally at IC50, vs untreated control. In kind it is cell-based, human.
Text: as §2

Data set [11] is described as follows: Neutral red (NR) uptake cytotoxicity assay, Caco-2. The settings on record: human, Caco-2.
Text: as §3, §4

Like-named read-outs stand apart in the source and are kept apart here.

Data on two molecules can be found in paper PMC5789597, “Cytotoxicity of seputhecarpan D, thonningiol and 12 other phytochemicals from African flora towards human carcinoma cells” (BMC Complementary and Alternative Medicine, 2018).

Text for in vitro: as §3, §4

Take `C=C(C)[C@@H]1CC[C@@]2(C)C1C1CCC3[C@@]4(C)CC[C@H](O)C(C)(C)C4CC[C@@]3(C)[C@]1(C)C[C@@H]2O` (stereo partly drawn) [Compound 3, 16β-hydroxylupeol]: the selectivity ratio at 72 h in the data set “in vitro” is 2.53. Also, the IC50 in [1] was 15.4 ± 0.96 µM; in data set [2], 35.6 ± 3.29 µM; in [3] it was 52.6 ± 5.11 µM; in data set [4], 9.12 ± 1.02 µM; in data set [5] (all 4/4 tested cancer cell lines, read-out: IC50 values against the four tested cancer cell lines), under 85 µM; in data set [6] it was 20.8 ± 1.53 µM. Besides, the “selectivity index, DLD-1” value in data set [1] is recorded as 3.41. Moreover, in [2] (IC50 in CRL2120 normal fibroblasts divided by IC50 in HepG2), the “selectivity index, HepG2” value was 1.47. For the same molecule, in [4], the “selectivity index, MCF7” value worked out at 5.76.

Take `C=CC(C)(C)c1cc2c(cc1O)OCC1c3ccc(OC)cc3OC21` (centres unmarked) [Compound 13, seputhecarpan D]: the IC50 was 10.8 ± 1.11 µM in [1]; 67.7 ± 5.18 µM in data set [2]; over 118 µM in data set [3]; 9.78 ± 0.55 µM in data set [4]; under 10 µM in data set [5] (3/4 tested cancer cell lines, read-out: IC50 values in 3/4 tested cell lines); 10.5 ± 0.48 µM in [6]. Also, the “selectivity index, DLD-1” value in [1] is reported as over 10.97. For the same molecule, in the data set on MCF-7 cells [7], the “P2: cells with altered MMP (MMP depletion)” value worked out at 12.9%. In addition, in the data set on MCF-7 cells [8] (MCF-7, 2 × IC50 (as printed in text), non-treated cells 3.1%), the “percentages of cells in sub-G0/G1 phase” value amounted to 31.1%. Further, the “Growth (percentage of control) Sub-G0; percentage of cells in sub-G0/G1 phase” value in the data set with MCF-7 cells [8] (MCF-7, 72 h, ¼ x IC50, non-treated cells 3.1%) stood at 7.6%. Also, the “cell cycle arrest (phase)” value with MCF-7 cells [8] (MCF-7 cells, 72 h) is “Go/G1”. In addition, the “increase of caspase 9 activity” value in the data set with caspase 9 in MCF-7 cells is listed as 3.47 fold. For the same molecule, the “increase in ROS levels” value with MCF-7 cells [9] was determined as 3.78 fold. The “increase of caspases 3/7 activity” value in data set [10] came out at 4.66 fold. Also, in data set [4], the “selectivity index, MCF7” value is on record as over 12.10. Moreover, the selectivity ratio at 72 h in [11] was over 11.3.
